How the values were obtained:
[1] = system: rats having DMN-induced liver fibrosis; experiment: Comparison of therapeutic effect between composition and single component on rats having DMN-induced liver fibrosis (Example 5); type: in vivo, SD rats; conditions: DMN model; for ALT (activity of blood serum) / AST (activity of blood serum) / GGT (activity of blood serum) / Hyp (content in liver tissues) / Tbil (content of blood serum): gavage, two weeks of treatment, x ± s; for Degree of liver fibrosis S0 (number of rats) / Degree of liver fibrosis S1 (number of rats) / Degree of liver fibrosis S2 (number of rats) / Degree of liver fibrosis S3 (number of rats) / Degree of liver fibrosis S4 (number of rats): HE and Sirius red staining, S0-S4 staging; for Degree of liver fibrosis S0 (number of rats): stage S0; for Degree of liver fibrosis S1 (number of rats): stage S1; for Degree of liver fibrosis S2 (number of rats): stage S2; for Degree of liver fibrosis S3 (number of rats): stage S3; for Degree of liver fibrosis S4 (number of rats): stage S4
Source text: Modeling and grouping: 80 SD rats were randomly divided into a normal group (6) and modeling groups (74). The modeling method was the same as that in Example 1. Four weeks later, 4 rats from the modeling group died. The remaining […] rats were randomly divided into a model group, a Composition A group, groups having a single component of Composition A, a first control group of Fuzhenghuayu capsule, and a second control group of colchicines, each group 10 rats. The administered dose of colchicines was 0.1 mg/Kg, Fuzhenghuayu capsule 4.6 g/Kg. The Composition A group was administered Cordyceps sinensis polysaccharide 60 mg/Kg, Gypenoside 50 mg/Kg, and Amygdaloside 80 mg/Kg. The administered dose of the Gypenoside group was 200 mg/Kg, Amygdaloside 80 mg/Kg, and Cordyceps sinensis polysaccharide 60 mg/Kg. Each group was administered by gavage in a volume of 10 mL/Kg. The model group was administered the same volume of drinking water. After two weeks of treatment, the remaining 61 rats were anesthetized by intraperitoneal injection of 2% pentobarbital sodium. […] Liver tissue was also collected in centrifuge tubes (1.5 mL) for analyzing. Two liver tissues from a hepatic lobule was collected and immersed in a formalin solution for testing.
Observing index and method: the content of hydroxyproline (Hyp) in liver tissues (Jamall's method); liver function of blood serum; liver tissues were stained with HE and Sirius red respectively to determine the degree of liver fibrosis according to the S0-S4 staging criteria in literatures.
The obtained data was expressed as x±s and analysed statistically with software SPSS 12.0 for variance analysis and comparison between groups. The comparison of ranked data between groups was performed by Ridit analysis.

[2] = system: rats having CCl4-induced liver fibrosis; experiment: Comparison of therapeutic effect between composition and single component on rats having CCl4-induced liver fibrosis (Example 6); type: in vivo, SD rats; conditions: CCl4 model; for ALT (activity of blood serum) / AST (activity of blood serum) / Alb (content of blood serum) / GGT (activity of blood serum) / Hyp (content in liver tissues) / Tbil (content of blood serum): SD rats, three weeks of treatment while modeling, x ± s
Source text: Modeling and grouping: 86 SD rats were randomly divided into a normal group (6) and modeling groups (80). The modeling method was the same as that in Example 2. Six weeks later, 2 rats from the modeling group died. The remaining 78 rats were randomly divided into a model group (12), a Composition A group (11), groups having a single component of Composition A (each group with 11 rats), a first control group of Fuzhenghuayu capsule (11), and a second control group of colchicine (11). The administered dose was the same as those in Example 5. After three weeks of treatment while modeling, the remaining […] rats were anesthetized by intraperitoneal injection of 2% pentobarbital sodium. […] Liver tissue was also collected in centrifuge tubes (1.5 mL) for analyzing. Two liver tissues from a hepatic lobule was collected and immersed in a formalin solution for testing.
Observing index and method: the same as those in Example 5.
The obtained data was expressed as x±s and analysed statistically with software SPSS 12.0 for variance analysis and comparison between groups.

| SMILES | effect on DMN-induced liver fibrosis (in words) ([1]; SD rats) | ALT (activity of blood serum) ([1]; SD rats) [U · ml^−1] | AST (activity of blood serum) ([1]; SD rats) [U · ml^−1] | GGT (activity of blood serum) ([1]; SD rats) [U · ml^−1] | Hyp (content in liver tissues) ([1]; SD rats) [μg · g^−1 liver weight] | Tbil (content of blood serum) ([1]; SD rats) [mg/dL] | Degree of liver fibrosis S0 (number of rats) [1] | Degree of liver fibrosis S1 (number of rats) [1] | Degree of liver fibrosis S2 (number of rats) [1] | Degree of liver fibrosis S3 (number of rats) [1] | Degree of liver fibrosis S4 (number of rats) [1] | ALT (activity of blood serum) [2] | AST (activity of blood serum) [2] | Alb (content of blood serum) [2] | GGT (activity of blood serum) [2] [U · ml^−1] | Hyp (content in liver tissues) [2] | Tbil (content of blood serum) [2] [mg/dL] | collagen fibers, Sirius red staining of liver tissues ([1]; compared with the model group, FIG. 1) | collagen fibers, Sirius red staining of liver tissues ([2]; compared with the model group, FIG. 2) |
| --- | --- | --- | --- | --- | --- | --- | --- | --- | --- | --- | --- | --- | --- | --- | --- | --- | --- | --- | --- |
| N#C[C@H](O[C@@H]1O[C@H](CO[C@@H]2O[C@H](CO)[C@@H](O)[C@H](O)[C@H]2O)[C@@H](O)[C@H](O)[C@H]1O)c1ccccc1 [Amygdaloside] | can weaken the DMN-induced liver fibrosis | 55.39 ± 15.56 | 69.13 ± 15.74 | 37.01 ± 19.92 | 323 ± 79 | 0.95 ± 0.58 | 0 | 1 | 4 | 3 | 0 | 220.8 ± 47.4 ## U · ml^−1 | 249.1 ± 47.4 U · ml^−1 | 23.67 ± 2.84 g/L | 16.10 ± 6.74 | 403 ± 89 # μg · g^−1 liver weight | 0.85 ± 0.23 |  |  |
| COc1cc2c(c(OC)c1OC)-c1ccc(OC)c(=O)cc1[C@@H](NC(C)=O)CC2 [Colchicine] |  | 47.55 ± 17.47 | 62.81 ± 13.04 | 31.30 ± 17.21 | 300 ± 47 | 0.86 ± 0.56 | 0 | 1 | 5 | 2 | 0 | 192.6 ± 60.9 # U · ml^−1 | 220.9 ± 60.9 # U · ml^−1 | 24.59 ± 2.11 ## g · l^−1 | 13.87 ± 9.13 | 373 ± 112 μg · g^−1 liver weight | 0.74 ± 0.25 | decreased as compared with the model group | decreased as compared with the model group |

Reference: patent US20100069325A1, “Pharmaceutical composition for treatment of chronic liver diseases and use thereof” (priority 2008, published 2010)
